Results: US11371055B2, “Herbicide resistance genes” (CORTEVA AGRISCIENCE LLC, priority 2005, dated 2022)

Experiments:
T1 AAD-12 (v1) canola = experiment: 2,4-D DMA tolerance in T1 canola; type: in vivo, Brassica napus
Protocol: For T1 AAD-12 (v1), 5-6 mg of seed were stratified, sown, and a fine layer of Sunshine Mix #5 media was added as a top layer of soil. Emerging plants were selected with 560 g ae/ha 2,4-D at 7 and 13 days after planting.
Surviving plants were transplanted into 3-inch pots containing Metro Mix media. Surviving plants from T1 progenies, that were selected with 560 g ae/ha 2,4-D, were also transplanted into 3-inch pots filled with Metro Mix soil. At 2-4 leaf stage plants were sprayed with either 280, 560, 1120, or 2240 g ae/ha 2,4-D DMA. Plants were graded at 3 and 14 DAT and compared to untransformed control plants. A sampling of T1 event injury data 14DAT may be seen in Table 30.

[1] = test system: Untransformed control corn (5XH751×Hi II); experiment: Brace root injury of untransformed control corn after 2,4-D DMA; type: in vivo, Zea mays; conditions: 2240 g ae/ha 2,4-D DMA, V3-V4 stage, 14DAT
Description: T1 AAD-12 (v1) seed were planted into 3-inch pots containing Metro Mix media and at 2 leaf stage were sprayed with 70 g ae/ha imazethapyr to eliminate nulls. Surviving plants were transplanted to 1-gallon pots containing Metro Mix media and placed in the same growth conditions as before. At V3-V4 stage the plants were sprayed in the track sprayer set to 187 L/ha at either 560 or 2240 g ac/ha 2,4-D DMA. Plants were graded at 3 and 14 DAT and compared to 5XH751×Hi II control plants. A grading scale of 0-10 (no injury to extreme auxin injury) was developed to distinguish brace root injury. Brace Root grades were taken on 14DAT to show 2,4-D tolerance. 2,4-D causes brace root malformation, and is a consistent indicator of auxinic herbicide injury in corn. […] Event “pDAB4101(0)001.001” was apparently unstable; however, the other two events were robustly tolerant to 2,4-D and 2,4-D+imazethapyr or 2,-4D+glyphosate (see Table 16).

[2] = test system: untransformed commercial rice cultivar Lamont; experiment: 2,4-D DMA tolerance, untransformed rice control; type: in vivo, Oryza sativa; conditions: Lemont Untransformed Control
Description: The following T1 AAD-12 (v1) single segregating locus lines were planted into 3-inch pots containing Metro Mix media: pDAB4101(20)003 and pDAB4101(27)002. At 2-3 leaf stage were sprayed with 140 g ae/ha imazethapyr. Nulls were eliminated and individuals were sprayed at V3-V4 stage in the track sprayer set to 187 L/ha at 1120, 2240 or 4480 g ac/ha 2,4-D DMA (2×, 4×, and 8× typical commercial use rates, respectively). Plants were graded at 7 and 14 DAT and compared to untransformed commercial rice cultivar. ‘Lamont,’ as negative control plants.

[3] = test system: AAD-12 transformed T0 corn events; experiment: Postemergence herbicide tolerance in T0 corn; type: in vivo, Zea mays; conditions: 2240 g ae/ha 2,4-D
Protocol: Four T0 events were allowed to acclimate in the greenhouse and were grown until 2-4 new, normal looking leaves had emerged from the whorl (i.e., plants had transitioned from tissue culture to greenhouse growing conditions). Plants were grown at 27° C. under 16 hour light:8 hour dark conditions in the greenhouse. Plants were then treated with commercial formulations of either Pursuit® (imazethapyr) or 2,4-D Amine 4. […] Herbicide applications were made with a track sprayer at a spray volume of 187 L/ha, 50-cm spray height. Plants were sprayed with either a lethal dose of imazethapyr (70 g ae/ha) or a rate of 2,4-D DMA salt capable of significant injury to untransformed corn lines (2240 g ac/ha). A lethal dose is defined as the rate that causes >95% injury to the Hi-II inbred. Hi-II is the genetic background of the transformants of the present invention.

KY160 control tobacco = experiment: Elevated 2,4-D DMA rates in greenhouse tobacco, sensitive control; type: in vivo, Nicotiana tabacum
Description: T1 AAD-12 (v1) plants from an event segregating 3R:1S when selected with 560 g ai/ha Liberty using the same protocol as previously described. T1 AAD-1 (v3) seed was also planted for transformed tobacco controls (see PCT/US2005/014737). Untransformed KY160 was served as the sensitive control. Plants were sprayed using a track sprayer set to 187 L/ha at 140, 560, 2240, 8960, and 35840 g ae/ha 2,4-D DMA and rated 3 and 14 DAT.

AAD-12 (v2) = target: T1, AAD-12 (v2) (Delftia acidovorans, UniProt P83309); experiment: Chloropyridinol detection assay (absorbance at 325 nm); type: biochemical
T1 construct: made in house; host or cells: Pseudomonas fluorescens strain MB324 (construct pDAB739)
Description: AAD-12 action on potential substrates such as the herbicide triclopyr containing a substituted pyridine (rather than benzene rings) will release a pyridinol on cleavage of the aryloxyalkanoate bond. Pyridinols were not detected using the aminoantipyrine/ferricyanide phenol detection described in the preceding section. […] This was used to create a continuous microplate-based spectrophotometric assay.
All five pyridyloxyalkanoates were cleaved to release pyridinols by AAD-12 (v2). The rates for the oxypropionate substrates 116844 and 91767 were somewhat faster than those for the corresponding acetates (triclopyr and 93833 respectively) indicating a preference of AAD-12 (v2) for oxypropionate over oxyacetate side chains.

CNC.O=C(O)COc1ccc(Cl)cc1Cl [2,4-D DMA]
Average % injury 14 DAT (T1 AAD-12 (v1) canola; T1 pDAB3759(18)009.001, 280 g ae/ha): 0%
Average % injury 14 DAT (T1 AAD-12 (v1) canola; T1 pDAB3759(18)009.001, 560 g ae/ha): 0%
Average % injury 14 DAT (T1 AAD-12 (v1) canola; T1 pDAB3759(18)009.001, 1120 g ae/ha): 0%
Average % injury 14 DAT (T1 AAD-12 (v1) canola; T1 pDAB3759(18)009.001, 2240 g ae/ha): 5%
Average % injury 14 DAT (T1 AAD-12 (v1) canola; T1 pDAB3759(18)022.001, 280 g ae/ha): 0%
Average % injury 14 DAT (T1 AAD-12 (v1) canola; T1 pDAB3759(18)022.001, 560 g ae/ha): 0%
Average % injury 14 DAT (T1 AAD-12 (v1) canola; T1 pDAB3759(18)022.001, 1120 g ae/ha): 13%
Average % injury 14 DAT (T1 AAD-12 (v1) canola; T1 pDAB3759(18)022.001, 2240 g ae/ha): 83%
Average % injury 14 DAT (T1 AAD-12 (v1) canola; T1 pDAB3759(18)023.001, 280 g ae/ha): 0%
Average % injury 14 DAT (T1 AAD-12 (v1) canola; T1 pDAB3759(18)023.001, 560 g ae/ha): 0%
Average % injury 14 DAT (T1 AAD-12 (v1) canola; T1 pDAB3759(18)023.001, 1120 g ae/ha): 3%
Average % injury 14 DAT (T1 AAD-12 (v1) canola; T1 pDAB3759(18)023.001, 2240 g ae/ha): 6%
Average % injury 14 DAT (T1 AAD-12 (v1) canola; T1 pDAB3759(18)030.001, 280 g ae/ha): 0%
Average % injury 14 DAT (T1 AAD-12 (v1) canola; T1 pDAB3759(18)030.001, 560 g ae/ha): 0%
Average % injury 14 DAT (T1 AAD-12 (v1) canola; T1 pDAB3759(18)030.001, 1120 g ae/ha): 5%
Average % injury 14 DAT (T1 AAD-12 (v1) canola; T1 pDAB3759(18)030.001, 2240 g ae/ha): 31%
Average % injury 14 DAT (T1 AAD-12 (v1) canola; T1 pDAB3759(33)013.001, 280 g ae/ha): 0%
Average % injury 14 DAT (T1 AAD-12 (v1) canola; T1 pDAB3759(33)013.001, 560 g ae/ha): 0%
Average % injury 14 DAT (T1 AAD-12 (v1) canola; T1 pDAB3759(33)013.001, 1120 g ae/ha): 0%
Average % injury 14 DAT (T1 AAD-12 (v1) canola; T1 pDAB3759(33)013.001, 2240 g ae/ha): 1%
Average Brace Root Injury (0-10 Scale) [1]: 9
Average % injury 14 DAT ([2]; 1120 g ae/ha): 20%
Average % injury 14 DAT ([2]; 2240 g ae/ha): 35%
Average % injury 14 DAT ([2]; 4480 g ae/ha): 50%

O=C(O)COc1ccc(Cl)cc1Cl [2,4-D, 2,4-dichlorophenoxyacetic acid]
% injury 14 DAT ([3]; T0 corn event 4101(0)003.001): 0%
% injury 14 DAT ([3]; T0 corn event 4101(0)003.003): 0%
% injury 14 DAT ([3]; T0 corn event 4101(0)005.001): 0%
Average % injury 14 DAT (KY160 control tobacco; 2240 g ae/ha 2,4-D): 95%
Average % injury 14 DAT (KY160 control tobacco; 8960 g ae/ha 2,4-D): 99%
Average % injury 14 DAT (KY160 control tobacco; 35840 g ae/ha 2,4-D): 100%

O=C(O)COc1nc(Cl)c(Cl)cc1Cl [triclopyr]
Rate relative to triclopyr (AAD-12 (v2); 6.8 μg AAD-12 (v2), 1 mM substrate): 1
Rate (mAU/min) (AAD-12 (v2); 6.8 μg AAD-12 (v2), 1 mM substrate, 325 nm, background rate 1.4 mAU/min subtracted): 97 mAU/min
inhibition at 2000 µM (AAD-12 (v2); read-out: Substrate inhibition at 2 mM): 0%
rate of AAD-12 (v2) cleavage relative to that of 2,4-D (AAD-12 (v2); under maximal velocity conditions): ~5%
substrate inhibition (AAD-12 (v2); up to 2 mM): No substrate inhibition
